Starred links: 1 amine or outer side, 2 acyl side, 3 side chain; linkers in the order of their positions; H or OH if unused. Positions of bridges follow the written chain, without caps; N, C: chain ends. Non-standard residues stand in square brackets, D forms with d. Residues, ends and D or L forms follow the SMILES beside them. *: point of attachment. NMehPhe = CN[C@@H](CCc1ccccc1)C(=O)O; dNMehPhe = CN[C@H](CCc1ccccc1)C(=O)O; NMeF = CN[C@@H](Cc1ccccc1)C(=O)O; NMeGABA = CN(CCCC(=O)[*:2])[*:1]; hPhe = N[C@@H](CCc1ccccc1)C(=O)O; NMeL = CN[C@@H](CC(C)C)C(=O)O; NMeV = CN[C@H](C(=O)O)C(C)C; NMeAbu = CC[C@H](NC)C(=O)O; NMeA = CN[C@@H](C)C(=O)O; Piperidide = C1CCN(*)CC1; Abu = CC[C@H](N)C(=O)O; Sar = CNCC(=O)O; tBu = CC(C)(C)*; Propyl = CCC*

One data set can be described thus: Caco-2 membrane permeability, improved method as used in the following Examples (96-well, 20 to 24 h preincubation). In kind it is in vitro ADME. To be noted: human, Caco-2, Caco-2. An outline of the steps:
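Papp (cm/sec) was derived from LC/MS of basal samples collected 180 min after apical dosing in FaSSIF/HBSS pH 6.0 with 1% DMSO, against a basal HBSS pH 7.4 receiver containing 4% BSA. Three-week Caco-2 cultures were first preincubated with compound in DMEM+FaSSIF at 37 °C for 20–24 h.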
Consider `CC(C)C[C@H]1C(=O)N(C)[C@@H](Cc2ccccc2)C(=O)N[C@H](C(=O)N2CCCCC2)CC(=O)N(C)[C@@H](C(C)C)C(=O)N[C@@H](C)C(=O)N(C)[C@@H](Cc2ccccc2)C(=O)N(C)[C@@H](CC(C)C)C(=O)N(C)CC(=O)N[C@@H]([C@@H](C)O)C(=O)N(C)[C@@H](C(C)C)C(=O)N[C@@H](CCc2ccccc2)C(=O)N1C` [pd311] ([NMeV]A[NMeF][NMeL][Sar]T[NMeV][hPhe][NMeL][NMeF]D-Piperidide; lactam N-11), for which the Papp A→B at 180 min worked out at 26 nm/s.

For the molecule `CC(C)C[C@@H]1NC(=O)[C@H](Cc2ccccc2)N(C)C(=O)[C@@H](C(C)C)NC(=O)C[C@@H](C(=O)N2CCCCC2)NC(=O)[C@H](C)N(C)C(=O)[C@H](CC(C)C)N(C)C(=O)[C@H](CCc2ccccc2)NC(=O)[C@H](CC(C)C)N(C)C(=O)CN(C)C(=O)[C@H]([C@@H](C)O)NC(=O)[C@H](CC(C)C)N(C)C1=O` [pd312] ([dV][NMeF]L[NMeL]T[Sar][NMeL][hPhe][NMeL][NMeA]D-Piperidide; lactam N-11), the Papp A→B at 180 min amounted to 15 nm/s.

Molecule `CC(C)C[C@H]1C(=O)N[C@@H](CCc2ccccc2)C(=O)N(C)[C@@H](Cc2ccccc2)C(=O)N(C)[C@@H](CC(C)C)C(=O)N[C@H](C(=O)N2CCCCC2)CC(=O)N[C@H](C(C)C)C(=O)N(C)[C@@H](C)C(=O)N[C@@H](C(C)C)C(=O)N(C)[C@@H](CC(C)C)C(=O)N[C@@H]([C@@H](C)O)C(=O)N(C)CC(=O)N1C` [pd313] ([dV][NMeA]V[NMeL]T[Sar][NMeL][hPhe][NMeF][NMeL]D-Piperidide; lactam N-11) returned a Papp A→B at 180 min of 25 nm/s.

Molecule `CC(C)C[C@H]1NC(=O)C[C@@H](C(=O)N2CCCCC2)NC(=O)[C@H](C)N(C)C(=O)[C@H](CC(C)C)N(C)C(=O)[C@H](COC(C)(C)C)NC(=O)[C@H](CC(C)C)N(C)C(=O)CN(C)C(=O)[C@H]([C@@H](C)O)NC(=O)[C@H](CC(C)C)N(C)C(=O)[C@H](CCc2ccccc2)NC(=O)[C@H](Cc2ccccc2)N(C)C1=O` [pd314] ([dL][NMeF][hPhe][NMeL]T[Sar][NMeL]S(tBu)[NMeL][NMeA]D-Piperidide; lactam N-11) gave a Papp A→B at 180 min of 14 nm/s.

In turn, `CC(C)C[C@H]1C(=O)N[C@@H](COC(C)(C)C)C(=O)N(C)[C@@H](Cc2ccccc2)C(=O)N(C)[C@@H](CC(C)C)C(=O)N[C@H](C(=O)N2CCCCC2)CC(=O)N[C@H](C(C)C)C(=O)N(C)[C@@H](CC(C)C)C(=O)N[C@@H](CCc2ccccc2)C(=O)N(C)[C@@H](CC(C)C)C(=O)N[C@@H]([C@@H](C)O)C(=O)N(C)CC(=O)N1C` [pd315] ([dV][NMeL][hPhe][NMeL]T[Sar][NMeL]S(tBu)[NMeF][NMeL]D-Piperidide; lactam N-11) displayed a Papp A→B at 180 min of 17 nm/s.

With `CC[C@H](C)[C@@H]1NC(=O)[C@H](CC(C)C)N(C)C(=O)CCCN(C)C(=O)C[C@@H](C(=O)N2CCCCC2)NC(=O)[C@H](CC(C)C)N(C)C(=O)[C@H](C)N(C)C(=O)[C@H]([C@@H](C)O)NC(=O)[C@H](CC(C)C)N(C)C(=O)[C@H](CCc2ccccc2)NC(=O)[C@H](CC(C)C)N(C)C(=O)[C@H](Cc2ccccc2)N(C)C1=O` [pd316] ([NMeGABA][NMeL]I[NMeF][NMeL][hPhe][NMeL]T[NMeA][NMeL]D-Piperidide; lactam N-11), the Papp A→B at 180 min is 14 nm/s.

Turning to `CC(C)C[C@H]1C(=O)N[C@H](C(=O)N2CCCCC2)CC(=O)N(C)CCCC(=O)N(C)[C@@H](CC(C)C)C(=O)N[C@@H](CCc2ccccc2)C(=O)N(C)[C@@H](CC(C)C)C(=O)N(C)[C@@H](Cc2ccccc2)C(=O)N[C@@H](COC(C)(C)C)C(=O)N(C)[C@@H](CC(C)C)C(=O)N[C@@H]([C@@H](C)O)C(=O)N(C)CC(=O)N1C` [pd317] ([NMeGABA][NMeL][hPhe][NMeL][NMeF]S(tBu)[NMeL]T[Sar][NMeL]D-Piperidide; lactam N-11), the Papp A→B at 180 min was found to be 18 nm/s.

Turning to `CC(C)C[C@H]1C(=O)N[C@H](C(=O)N2CCCCC2)CC(=O)N(C)[C@@H](C)C(=O)N[C@@H](C(C)C)C(=O)N(C)[C@@H](CC(C)C)C(=O)N(C)[C@@H](Cc2ccccc2)C(=O)N[C@@H](C)C(=O)N(C)[C@@H](C)C(=O)N(C)[C@@H](CC(C)C)C(=O)N[C@@H](CCc2ccccc2)C(=O)N(C)CC(=O)N1C` [pd318] ([NMeA]V[NMeL][NMeF]A[NMeA][NMeL][hPhe][Sar][NMeL]D-Piperidide; lactam N-11), the Papp A→B at 180 min worked out at 25 nm/s.

`CC[C@H]1C(=O)N[C@@H]([C@@H](C)O)C(=O)N(C)CC(=O)N(C)[C@@H](CC(C)C)C(=O)N[C@@H](CC(C)C)C(=O)N(C)[C@@H](Cc2ccccc2)C(=O)N(C)[C@@H](CC(C)C)C(=O)N[C@H](C(=O)N2CCCCC2)CC(=O)N[C@H](C(C)C)C(=O)N(C)[C@@H](CCc2ccccc2)C(=O)N[C@@H](CC(C)C)C(=O)N1C` [pd320] ([dV][NMehPhe]L[NMeAbu]T[Sar][NMeL]L[NMeF][NMeL]D-Piperidide; lactam N-11) returned a Papp A→B at 180 min of 17 nm/s.

For the molecule `CC(C)C[C@@H]1NC(=O)[C@H](CC(C)C)N(C)C(=O)CN(C)C(=O)[C@H]([C@@H](C)O)NC(=O)[C@H](CC(C)C)N(C)C(=O)[C@H](C(C)C)NC(=O)[C@H](Cc2ccccc2)N(C)C(=O)[C@@H](C)NC(=O)C[C@@H](C(=O)N2CCCCC2)NC(=O)[C@H](CC(C)C)N(C)C(=O)[C@H](CCc2ccccc2)N(C)C1=O` [pd321] ([dA][NMeF]V[NMeL]T[Sar][NMeL]L[NMehPhe][NMeL]D-Piperidide; lactam N-11), the Papp A→B at 180 min is 13 nm/s.

For the molecule `CC[C@@H]1NC(=O)[C@@H](CCc2ccccc2)N(C)C(=O)[C@H](CC(C)C)N(C)C(=O)[C@H](CC(C)C)NC(=O)[C@H](C)N(C)C(=O)C[C@@H](C(=O)N2CCCCC2)NC(=O)[C@H](CC(C)C)N(C)C(=O)CN(C)C(=O)[C@H]([C@@H](C)O)NC(=O)[C@H](CC(C)C)N(C)C(=O)[C@H](Cc2ccccc2)N(C)C1=O` [pd322] ([NMeA]L[NMeL][dNMehPhe][Abu][NMeF][NMeL]T[Sar][NMeL]D-Piperidide; lactam N-11), the Papp A→B at 180 min is 31 nm/s.

For the molecule `CC(C)C[C@@H]1NC(=O)[C@H](C)N(C)C(=O)C[C@@H](C(=O)N2CCCCC2)NC(=O)[C@H](CC(C)C)N(C)C(=O)CN(C)C(=O)[C@H]([C@@H](C)O)NC(=O)[C@H](CC(C)C)N(C)C(=O)[C@H](CCc2ccccc2)N(C)C(=O)[C@H](CC(C)C)NC(=O)[C@H](Cc2ccccc2)N(C)C(=O)[C@H](CC(C)C)N(C)C1=O` [pd323] ([NMeA]L[NMeL][NMeF]L[NMehPhe][NMeL]T[Sar][NMeL]D-Piperidide; lactam N-11), the Papp A→B at 180 min amounted to 23 nm/s.

Molecule `CC[C@H](C)[C@@H]1NC(=O)[C@H](Cc2ccccc2)N(C)C(=O)CN(C)C(=O)C[C@@H](C(=O)N2CCCCC2)NC(=O)[C@H](CC(C)C)N(C)C(=O)[C@H](COC(C)(C)C)NC(=O)[C@H](CC(C)C)N(C)C(=O)[C@H](CCc2ccccc2)N(C)C(=O)CN(C)C(=O)[C@H]([C@@H](C)O)NC(=O)[C@H](CC(C)C)N(C)C1=O` [pd324] ([Sar][NMeF]I[NMeL]T[Sar][NMehPhe][NMeL]S(tBu)[NMeL]D-Piperidide; lactam N-11) came in with a Papp A→B at 180 min of 33 nm/s.

For the molecule `CCCOC[C@@H]1NC(=O)[C@H](CC(C)C)N(C)C(=O)CN(C)C(=O)[C@H]([C@@H](C)O)NC(=O)[C@H](CC(C)C)N(C)C(=O)[C@H](CC(C)C)NC(=O)[C@H](Cc2ccccc2)N(C)C(=O)[C@@H](C(C)C)NC(=O)C[C@@H](C(=O)N2CCCCC2)NC(=O)[C@H](CC(C)C)N(C)C(=O)[C@H](Cc2ccccc2)N(C)C1=O` [pd325] ([dV][NMeF]L[NMeL]T[Sar][NMeL]S(Propyl)[NMeF][NMeL]D-Piperidide; lactam N-11), the Papp A→B at 180 min amounted to 22 nm/s.

For `CCCOC[C@@H]1NC(=O)[C@H](CC(C)C)N(C)C(=O)[C@H](C(C)C)NC(=O)[C@H](Cc2ccccc2)N(C)C(=O)[C@@H](C(C)C)NC(=O)C[C@@H](C(=O)N2CCCCC2)NC(=O)[C@H](C)N(C)C(=O)[C@H](Cc2ccccc2)N(C)C(=O)[C@H](COC(C)(C)C)NC(=O)[C@H](CC(C)C)N(C)C(=O)CN(C)C1=O` [pd326] ([dV][NMeF]V[NMeL]S(Propyl)[Sar][NMeL]S(tBu)[NMeF][NMeA]D-Piperidide; lactam N-11), the Papp A→B at 180 min was found to be 33 nm/s.

Molecule `CCCOC[C@@H]1NC(=O)[C@H](Cc2ccccc2)N(C)C(=O)[C@@H](C(C)C)NC(=O)C[C@@H](C(=O)N2CCCCC2)NC(=O)[C@H](CC(C)C)N(C)C(=O)[C@H](Cc2ccccc2)N(C)C(=O)[C@H](COC(C)(C)C)NC(=O)[C@H](CC(C)C)N(C)C(=O)CN(C)C(=O)[C@H]([C@@H](C)O)NC(=O)[C@H](CC(C)C)N(C)C1=O` [pd327] ([dV][NMeF]S(Propyl)[NMeL]T[Sar][NMeL]S(tBu)[NMeF][NMeL]D-Piperidide; lactam N-11) displayed a Papp A→B at 180 min of 31 nm/s.

The molecule `CCCOC[C@@H]1NC(=O)[C@H](Cc2ccccc2)N(C)C(=O)[C@H](Cc2ccccc2)N(C)C(=O)[C@H](C(C)C)NC(=O)[C@H](CC(C)C)N(C)C(=O)CCCN(C)C(=O)C[C@@H](C(=O)N2CCCCC2)NC(=O)[C@H](CC(C)C)N(C)C(=O)[C@H](CC(C)C)N(C)C(=O)[C@H]([C@@H](C)O)NC(=O)[C@H](CC(C)C)N(C)C1=O` [pd328] ([NMeGABA][NMeL]V[NMeF][NMeF]S(Propyl)[NMeL]T[NMeL][NMeL]D-Piperidide; lactam N-11) showed a Papp A→B at 180 min of 23 nm/s.

Staying with this data set, now noted: human; Papp, Caco-2 membrane permeability, improved method; read-out: Caco-2.
Regarding `CC(C)C[C@H]1C(=O)N[C@@H]([C@@H](C)O)C(=O)N(C)CC(=O)N(C)[C@@H](Cc2ccccc2)C(=O)N(C)[C@@H](CC(C)C)C(=O)N[C@@H](C(C)C)C(=O)N(C)[C@@H](CC(C)C)C(=O)N[C@H](C(=O)N2CCCCC2)CC(=O)N(C)CC(=O)N(C)[C@@H](C(C)C)C(=O)N[C@@H](CCc2ccccc2)C(=O)N1C` [pd319] ([Sar][NMeV][hPhe][NMeL]T[Sar][NMeF][NMeL]V[NMeL]D-Piperidide; lactam N-11), the Papp A→B at 180 min amounted to 22 nm/s.

Source of the values: patent US20200131669A1, “CYCLIC PEPTIDE COMPOUND HAVING HIGH MEMBRANE PERMEABILITY, AND LIBRARY CONTAINING SAME” (Chugai Seiyaku Kabushiki Kaisha, priority 2017, published 2020).
